Experimental data taken from patent publication US12240844B2 (Voronoi, Inc., priority 2019, dated 2025).

Columns and labels:
TNF-α = TNF-α secretion inhibition in LPS-treated THP-1 cells (ELISA); format: cell-based; settings: Homo sapiens, compound 0.5 μM, LPS 500 ng/ml, 24 hours, read-out: THP-1/TNF-a (% inhib)
Method in brief: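 Human monocytic THP-1 cells were pre-cultured 16 h at 37° C., then treated with compound at 0.5 μM final, followed by LPS at 500 ng/ml final. After 24 h, IL-6 and TNF-α in culture supernatant were quantified by ELISA with absorbance read at 450 nm.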

MDA-MB-231 cell line = experiment: MDA-MB-231 cancer cell proliferation inhibition (Cell Titer-Glo); format: cell-based; settings: Homo sapiens, MDA-MB-231 triple-negative breast cancer cell line, 72 hours
Method in brief: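 GI50 comes from CellTiter-Glo luminescence, read 10 min after reagent addition at RT, following 72 h compound treatment. Eleven concentrations were used (⅓ steps, highest 10 μM final) on 2000 cells/well. MDA-MB-231 and MDA-MB-468 were grown in DMEM, SHP-77 in RPMI.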

TTK = biological target: T1, TTK (Homo sapiens, UniProt P33981); experiment: TTK enzyme inhibition, ADP-Glo kinase assay; format: biochemical; set-up: purchased Signalchem T20-10G; settings: ATP 5 μM
T1 sequence (P33981 1-857): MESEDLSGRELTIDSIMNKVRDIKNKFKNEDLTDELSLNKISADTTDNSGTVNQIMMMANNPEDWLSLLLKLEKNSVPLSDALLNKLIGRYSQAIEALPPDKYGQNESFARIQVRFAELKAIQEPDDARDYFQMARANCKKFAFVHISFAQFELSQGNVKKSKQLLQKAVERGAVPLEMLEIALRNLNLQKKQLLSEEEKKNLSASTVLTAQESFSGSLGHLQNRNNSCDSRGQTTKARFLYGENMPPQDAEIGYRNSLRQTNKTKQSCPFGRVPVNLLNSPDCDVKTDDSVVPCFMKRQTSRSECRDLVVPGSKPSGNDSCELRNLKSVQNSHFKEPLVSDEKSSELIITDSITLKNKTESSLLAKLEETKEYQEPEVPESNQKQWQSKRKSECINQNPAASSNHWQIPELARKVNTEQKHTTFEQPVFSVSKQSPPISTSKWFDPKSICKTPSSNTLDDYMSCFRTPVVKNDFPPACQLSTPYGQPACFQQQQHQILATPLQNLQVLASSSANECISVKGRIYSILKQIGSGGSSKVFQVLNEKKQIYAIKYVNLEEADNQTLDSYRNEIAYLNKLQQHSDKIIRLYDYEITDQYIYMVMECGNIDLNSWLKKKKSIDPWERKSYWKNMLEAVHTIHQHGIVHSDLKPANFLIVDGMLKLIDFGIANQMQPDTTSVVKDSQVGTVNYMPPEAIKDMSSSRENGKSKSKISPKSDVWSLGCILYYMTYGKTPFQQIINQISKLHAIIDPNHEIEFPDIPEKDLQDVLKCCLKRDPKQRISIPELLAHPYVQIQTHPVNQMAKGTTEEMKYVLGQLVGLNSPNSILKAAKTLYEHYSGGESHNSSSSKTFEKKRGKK
Method in brief: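 Recombinant human TTK (7.5 ng) reacted with 5 μM ATP and MBP substrate (0.2 μg) for 4 h at 25° C in Tris-HCl pH 7.4, MgCl2, BSA, DTT buffer, compound at 0.000017–1 μM. ADP formation by ADP-Glo luminescence; IC50 (nM) relative to solvent control.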

Q: CNc1cc(Nc2ccc(C(=O)N3CCC(N4CCOCC4)CC3)c3c2OCC3)nc2[nH]cc(C(F)(F)F)c12 [Example 234, (7-((4-(methylamino)-3-(trifluoromethyl)-1H-pyrrolo[2,3-b]pyridin-6-yl)amino)-2,3-dihydrobenzofuran-4-yl)(4-morpholinopiperidin-1-yl)methanone] was tested. Which inhibition at 0.5 µM (TNF-α) did it give?
A: Its inhibition at 0.5 µM is 12.4%.

Q: What about the GI50 (MDA-MB-231 cell line) of the same molecule?
A: The GI50 was 301 to 1000 nM.

Q: And the IC50 (TTK)?
A: The IC50 was less than 100 nM.

Q: CCNc1cc(Nc2ccc(C(=O)N3CCC(N4C[C@H]5C[C@@H]4CO5)CC3)c3c2OCC3)nc2[nH]cc(C(F)(F)F)c12 [Example 244, (4-((1R,4R)-2-oxa-5-azabicyclo[2.2.1]heptan-5-yl)piperidin-1-yl)(7-((4-(ethylamino)-3-(trifluoromethyl)-1H-pyrrolo[2,3-b]pyridin-6-yl)amino)-2,3-dihydrobenzofuran-4-yl)methanone] was tested. Which inhibition at 0.5 µM (TNF-α) did it give?
A: The inhibition at 0.5 µM was 12.7%.

Q: And the GI50 (MDA-MB-231 cell line)?
A: Its GI50 is 301 to 1000 nM.

Q: What about the IC50 (TTK) of the same molecule?
A: The IC50 was less than 100 nM.

Q: How did the inhibition at 0.5 µM (TNF-α) turn out when CCNc1cc(Nc2ccc(C(=O)N3CCN(C4COC4)CC3)c3c2OCC3)nc2[nH]cc(C(F)(F)F)c12 [Example 248, (7-((4-(ethylamino)-3-(trifluoromethyl)-1H-pyrrolo[2,3-b]pyridin-6-yl)amino)-2,3-dihydrobenzofuran-4-yl)(4-(oxetan-3-yl)piperazin-1-yl)methanone] was run?
A: The inhibition at 0.5 µM was 9.2%.

Q: And the GI50 (MDA-MB-231 cell line)?
A: The GI50 was 301 to 1000 nM.

Q: What about the IC50 (TTK) of the same molecule?
A: The IC50 was less than 100 nM.
